Key:
Test in all cases: relative viability (nuclei count vs DMSO), 5 days (fraction); higher = more cells survive
RO-3306 + Olaparib = compound: C1=CC2=C(C=CC(=C2)C=C3C(=O)NC(=NCC4=CC=CS4)S3)N=C1 [RO-3306] + O=C(c1cc(Cc2n[nH]c(=O)c3ccccc23)ccc1F)N1CCN(C(=O)C2CC2)CC1 [Olaparib] (partner 8 µM)
In short: (§1)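 Medians of duplicate plates are given as relative viability. That measure is the nuclei count in treated wells divided by the count in vehicle wells. Counts were taken on 4× images of lung cancer cell lines in 1536-well plates, 5 days after pin-tool dosing the day after seeding with one drug alone or a fixed anchor-drug dose plus five library-drug doses (not always all listed) in √10 steps.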

[1] = compound: O=S(=O)(c1ccccc1)N(CC(F)(F)F)c1ccc(C(O)(C(F)(F)F)C(F)(F)F)cc1 + Cc1nc(Nc2ncc(C(=O)Nc3c(C)cccc3Cl)s2)cc(N2CCN(CCO)CC2)n1 [Dasatinib] (partner 0.075 µM)
In short: as §1

[2] = compound: O=S(=O)(c1ccccc1)N(CC(F)(F)F)c1ccc(C(O)(C(F)(F)F)C(F)(F)F)cc1 + CC(=O)Nc1cccc(-n2c(=O)n(C3CC3)c(=O)c3c(Nc4ccc(I)cc4F)n(C)c(=O)c(C)c32)c1 [Trametinib] (partner 0.02 µM)
In short: as §1

RO-3306 + Luminespib = compound: C1=CC2=C(C=CC(=C2)C=C3C(=O)NC(=NCC4=CC=CS4)S3)N=C1 [RO-3306] + CCNC(=O)c1noc(-c2cc(C(C)C)c(O)cc2O)c1-c1ccc(CN2CCOCC2)cc1 [Luminespib] (partner 0.01 µM)
In short: as §1

## EPLC-272H
RO-3306 + Olaparib; first compound 0.01 µM
  relative viability: 0.752
RO-3306 + Olaparib; first compound 0.03162 µM
  relative viability: 0.461
RO-3306 + Olaparib; first compound 0.1 µM
  relative viability: 1.22
RO-3306 + Olaparib; first compound 0.3162 µM
  relative viability: 0.647
RO-3306 + Olaparib; first compound 1 µM
  relative viability: 0.291
[1]; first compound 0.8 µM
  relative viability: 0.323
[1]; first compound 2.53 µM
  relative viability: 0.398
[1]; first compound 8 µM
  relative viability: 0.384
[2]; first compound 0.8 µM
  relative viability: 0.274
[2]; first compound 2.53 µM
  relative viability: 0.289
[2]; first compound 8 µM
  relative viability: 0.269
RO-3306 + Luminespib; first compound 0.01 µM
  relative viability: 0.239
RO-3306 + Luminespib; first compound 0.03162 µM
  relative viability: 0.114
RO-3306 + Luminespib; first compound 0.1 µM
  relative viability: 0.142
RO-3306 + Luminespib; first compound 0.3162 µM
  relative viability: 0.367
RO-3306 + Luminespib; first compound 1 µM
  relative viability: 0.111

## NCI-H2023
RO-3306 + Olaparib; first compound 0.01 µM
  relative viability: 0.469
RO-3306 + Olaparib; first compound 0.03162 µM
  relative viability: 0.437
RO-3306 + Olaparib; first compound 0.1 µM
  relative viability: 0.422
RO-3306 + Olaparib; first compound 0.3162 µM
  relative viability: 0.463
RO-3306 + Olaparib; first compound 1 µM
  relative viability: 0.379
[1]; first compound 0.8 µM
  relative viability: 0.547
[1]; first compound 2.53 µM
  relative viability: 0.434
[1]; first compound 8 µM
  relative viability: 0.369
[2]; first compound 0.8 µM
  relative viability: 0.593
[2]; first compound 2.53 µM
  relative viability: 0.428
[2]; first compound 8 µM
  relative viability: 0.358
RO-3306 + Luminespib; first compound 0.01 µM
  relative viability: 0.681
RO-3306 + Luminespib; first compound 0.03162 µM
  relative viability: 0.723
RO-3306 + Luminespib; first compound 0.1 µM
  relative viability: 0.643
RO-3306 + Luminespib; first compound 0.3162 µM
  relative viability: 0.534
RO-3306 + Luminespib; first compound 1 µM
  relative viability: 0.396

## NCI-H1299
RO-3306 + Olaparib; first compound 0.01 µM
  relative viability: 0.993
RO-3306 + Olaparib; first compound 0.03162 µM
  relative viability: 0.99
RO-3306 + Olaparib; first compound 0.1 µM
  relative viability: 0.988
RO-3306 + Olaparib; first compound 0.3162 µM
  relative viability: 0.997
RO-3306 + Olaparib; first compound 1 µM
  relative viability: 0.97

## NCI-H358
RO-3306 + Olaparib; first compound 0.01 µM
  relative viability: 0.779
RO-3306 + Olaparib; first compound 0.03162 µM
  relative viability: 0.485
RO-3306 + Olaparib; first compound 0.1 µM
  relative viability: 0.583
RO-3306 + Olaparib; first compound 0.3162 µM
  relative viability: 0.596
RO-3306 + Olaparib; first compound 1 µM
  relative viability: 0.468
[1]; first compound 0.8 µM
  relative viability: 0.124
[1]; first compound 2.53 µM
  relative viability: 0.144
[1]; first compound 8 µM
  relative viability: 0.148
[2]; first compound 2.53 µM
  relative viability: 0.118
[2]; first compound 8 µM
  relative viability: 0.118
RO-3306 + Luminespib; first compound 0.01 µM
  relative viability: 0.408
RO-3306 + Luminespib; first compound 0.03162 µM
  relative viability: 0.292
RO-3306 + Luminespib; first compound 0.1 µM
  relative viability: 0.376
RO-3306 + Luminespib; first compound 0.3162 µM
  relative viability: 0.316
RO-3306 + Luminespib; first compound 1 µM
  relative viability: 0.229

## NCI-H1734
RO-3306 + Olaparib; first compound 0.01 µM
  relative viability: 0.703
RO-3306 + Olaparib; first compound 0.03162 µM
  relative viability: 0.515
RO-3306 + Olaparib; first compound 0.1 µM
  relative viability: 0.632
RO-3306 + Olaparib; first compound 0.3162 µM
  relative viability: 0.622
RO-3306 + Olaparib; first compound 1 µM
  relative viability: 0.551
[1]; first compound 0.8 µM
  relative viability: 0.553
[1]; first compound 2.53 µM
  relative viability: 0.464
[1]; first compound 8 µM
  relative viability: 0.462
[2]; first compound 0.8 µM
  relative viability: 0.711
[2]; first compound 2.53 µM
  relative viability: 0.65
[2]; first compound 8 µM
  relative viability: 0.664
RO-3306 + Luminespib; first compound 0.01 µM
  relative viability: 0.168
RO-3306 + Luminespib; first compound 0.03162 µM
  relative viability: 0.172
RO-3306 + Luminespib; first compound 0.1 µM
  relative viability: 0.205
RO-3306 + Luminespib; first compound 0.3162 µM
  relative viability: 0.195
RO-3306 + Luminespib; first compound 1 µM
  relative viability: 0.171

## COR-L23
RO-3306 + Olaparib; first compound 0.01 µM
  relative viability: 0.414
RO-3306 + Olaparib; first compound 0.03162 µM
  relative viability: 0.364
RO-3306 + Olaparib; first compound 0.1 µM
  relative viability: 0.456
RO-3306 + Olaparib; first compound 0.3162 µM
  relative viability: 0.34
RO-3306 + Olaparib; first compound 1 µM
  relative viability: 0.322
[1]; first compound 0.8 µM
  relative viability: 0.591
[1]; first compound 2.53 µM
  relative viability: 0.461
[1]; first compound 8 µM
  relative viability: 0.5
[2]; first compound 0.8 µM
  relative viability: 0.657
[2]; first compound 2.53 µM
  relative viability: 0.583
[2]; first compound 8 µM
  relative viability: 0.539
RO-3306 + Luminespib; first compound 0.01 µM
  relative viability: 0.648
RO-3306 + Luminespib; first compound 0.03162 µM
  relative viability: 0.591
RO-3306 + Luminespib; first compound 0.1 µM
  relative viability: 0.778
RO-3306 + Luminespib; first compound 0.3162 µM
  relative viability: 0.868
RO-3306 + Luminespib; first compound 1 µM
  relative viability: 0.562

## ABC-1
RO-3306 + Olaparib; first compound 0.01 µM
  relative viability: 0.785
RO-3306 + Olaparib; first compound 0.03162 µM
  relative viability: 1.17
RO-3306 + Olaparib; first compound 0.1 µM
  relative viability: 0.833
RO-3306 + Olaparib; first compound 0.3162 µM
  relative viability: 0.61
RO-3306 + Olaparib; first compound 1 µM
  relative viability: 0.771
[1]; first compound 0.8 µM
  relative viability: 0.649
[1]; first compound 2.53 µM
  relative viability: 0.531
[1]; first compound 8 µM
  relative viability: 0.654
RO-3306 + Luminespib; first compound 0.01 µM
  relative viability: 0.548
RO-3306 + Luminespib; first compound 0.03162 µM
  relative viability: 0.719
RO-3306 + Luminespib; first compound 0.1 µM
  relative viability: 0.527
RO-3306 + Luminespib; first compound 0.3162 µM
  relative viability: 0.658
RO-3306 + Luminespib; first compound 1 µM
  relative viability: 0.898

## A549
RO-3306 + Olaparib; first compound 0.01 µM
  relative viability: 0.308
RO-3306 + Olaparib; first compound 0.03162 µM
  relative viability: 0.295
RO-3306 + Olaparib; first compound 0.1 µM
  relative viability: 0.297
RO-3306 + Olaparib; first compound 0.3162 µM
  relative viability: 0.367
RO-3306 + Olaparib; first compound 1 µM
  relative viability: 0.303

## NCI-H1623
[1]; first compound 0.8 µM
  relative viability: 0.528
[1]; first compound 2.53 µM
  relative viability: 0.51
[1]; first compound 8 µM
  relative viability: 0.493
RO-3306 + Luminespib; first compound 0.01 µM
  relative viability: 0.574
RO-3306 + Luminespib; first compound 0.03162 µM
  relative viability: 0.451
RO-3306 + Luminespib; first compound 0.1 µM
  relative viability: 0.617
RO-3306 + Luminespib; first compound 0.3162 µM
  relative viability: 0.471
RO-3306 + Luminespib; first compound 1 µM
  relative viability: 0.5

## NCI-H1703
RO-3306 + Olaparib; first compound 0.01 µM
  relative viability: 0.387
RO-3306 + Olaparib; first compound 0.03162 µM
  relative viability: 0.38
RO-3306 + Olaparib; first compound 0.1 µM
  relative viability: 0.387
RO-3306 + Olaparib; first compound 0.3162 µM
  relative viability: 0.389
RO-3306 + Olaparib; first compound 1 µM
  relative viability: 0.429

## HCC-366
RO-3306 + Olaparib; first compound 0.01 µM
  relative viability: 0.384
RO-3306 + Olaparib; first compound 0.03162 µM
  relative viability: 0.281
RO-3306 + Olaparib; first compound 0.1 µM
  relative viability: 0.366
RO-3306 + Olaparib; first compound 0.3162 µM
  relative viability: 0.383
RO-3306 + Olaparib; first compound 1 µM
  relative viability: 0.393
[1]; first compound 0.8 µM
  relative viability: 0.856
[1]; first compound 2.53 µM
  relative viability: 0.674
[1]; first compound 8 µM
  relative viability: 0.606
[2]; first compound 0.8 µM
  relative viability: 0.469
[2]; first compound 2.53 µM
  relative viability: 0.335
[2]; first compound 8 µM
  relative viability: 0.23

## HCC-44
RO-3306 + Olaparib; first compound 0.01 µM
  relative viability: 1.01
RO-3306 + Olaparib; first compound 0.03162 µM
  relative viability: 0.958
RO-3306 + Olaparib; first compound 0.1 µM
  relative viability: 1
RO-3306 + Olaparib; first compound 0.3162 µM
  relative viability: 1.01
RO-3306 + Olaparib; first compound 1 µM
  relative viability: 1.02
[2]; first compound 0.8 µM
  relative viability: 1.01
[2]; first compound 2.53 µM
  relative viability: 0.925
[2]; first compound 8 µM
  relative viability: 0.918
RO-3306 + Luminespib; first compound 0.01 µM
  relative viability: 1.2
RO-3306 + Luminespib; first compound 0.03162 µM
  relative viability: 1.13
RO-3306 + Luminespib; first compound 0.1 µM
  relative viability: 1.02
RO-3306 + Luminespib; first compound 0.3162 µM
  relative viability: 1.11
RO-3306 + Luminespib; first compound 1 µM
  relative viability: 0.922

## NCI-H1563
[1]; first compound 0.8 µM
  relative viability: 0.402
[1]; first compound 2.53 µM
  relative viability: 0.427
[1]; first compound 8 µM
  relative viability: 0.435
RO-3306 + Luminespib; first compound 0.01 µM
  relative viability: 0.516
RO-3306 + Luminespib; first compound 0.03162 µM
  relative viability: 0.519
RO-3306 + Luminespib; first compound 0.1 µM
  relative viability: 0.6
RO-3306 + Luminespib; first compound 0.3162 µM
  relative viability: 0.533
RO-3306 + Luminespib; first compound 1 µM
  relative viability: 0.507

## IA-LM
RO-3306 + Olaparib; first compound 0.01 µM
  relative viability: 0.975
RO-3306 + Olaparib; first compound 0.1 µM
  relative viability: 0.785
RO-3306 + Olaparib; first compound 0.3162 µM
  relative viability: 0.846
RO-3306 + Olaparib; first compound 1 µM
  relative viability: 0.865

## HCC-78
RO-3306 + Olaparib; first compound 0.01 µM
  relative viability: 0.849
RO-3306 + Olaparib; first compound 0.03162 µM
  relative viability: 0.714
RO-3306 + Olaparib; first compound 0.1 µM
  relative viability: 0.93
RO-3306 + Olaparib; first compound 0.3162 µM
  relative viability: 0.938
RO-3306 + Olaparib; first compound 1 µM
  relative viability: 0.762
[1]; first compound 0.8 µM
  relative viability: 0.374
[1]; first compound 2.53 µM
  relative viability: 0.336
[1]; first compound 8 µM
  relative viability: 0.919
[2]; first compound 0.8 µM
  relative viability: 0.666
[2]; first compound 2.53 µM
  relative viability: 0.575
[2]; first compound 8 µM
  relative viability: 0.689

— the supplement of paper PMC10307832
